Earlier results in article PMC5493349, “Quaternary structure is an essential component that contributes to the sophisticated allosteric regulation mechanism in a key enzyme from Mycobacterium tuberculosis” (PLoS ONE, 2017).

Columns and labels:
Conditions in all cases: cited from earlier work
wild-type MtuDAH7PS [1] = molecular target: T1, wild-type MtuDAH7PS (Mycobacterium tuberculosis, UniProt O53512)
wild-type MtuDAH7PS [2] = molecular target: T1, wild-type MtuDAH7PS; remark: listed apart in the source
wild-type MtuDAH7PS [3] = molecular target: T1, wild-type MtuDAH7PS; remark: listed apart in the source

T1 sequence (O53512 whole entry): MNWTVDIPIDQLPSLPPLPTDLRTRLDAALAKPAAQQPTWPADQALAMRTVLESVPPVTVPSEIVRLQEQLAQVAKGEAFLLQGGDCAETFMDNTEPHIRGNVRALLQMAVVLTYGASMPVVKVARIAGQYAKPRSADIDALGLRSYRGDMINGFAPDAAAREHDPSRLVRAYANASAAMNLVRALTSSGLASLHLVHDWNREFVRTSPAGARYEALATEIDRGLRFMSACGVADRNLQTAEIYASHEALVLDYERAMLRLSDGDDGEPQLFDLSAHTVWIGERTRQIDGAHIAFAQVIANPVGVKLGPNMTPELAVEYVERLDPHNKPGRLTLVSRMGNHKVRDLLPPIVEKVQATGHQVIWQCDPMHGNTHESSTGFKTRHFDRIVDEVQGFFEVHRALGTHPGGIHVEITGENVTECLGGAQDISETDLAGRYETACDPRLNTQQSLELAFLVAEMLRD

Structure (SMILES) | E4P0.5 (wild-type MtuDAH7PS [1]) [µM] | inhibition of wild type MtuDAH7PS by Trp alone (wild-type MtuDAH7PS [2]) | reduction in Kd of Trp after pre-incubation with Phe (wild-type MtuDAH7PS [3]) [fold]
O=C[C@H](O)[C@H](O)COP(=O)(O)O [E4P, erythrose 4-phosphate] | 382 |  | 
N[C@@H](Cc1c[nH]c2ccccc12)C(=O)O [Trp, L-Trp] |  | not inhibitory | 4
